In US20100317699A1, “USE OF HEDGEHOG AGONISTS IN THE TREATMENT OF MUSCULOSKELETAL-RELATED DISORDERS” (NOVARTIS AG, priority 2008, published 2010):
Values joined by “and” are separate entries in the source; they are usually repeats but may differ in a detail not shown here. Identical values can stand only once. “Also recorded” adds a separate entry of the source.

Key:
Cyclin D1 [1] = test: Cyclin D1 protein levels, Western blot densitometry; format: cell-based; conditions: rSHH 1 μg/mL; densitometric scores relative to vehicle=100
Description: (§1) Protein expression. For details of protein extraction and analysis, please see Supplementary Methods online. Antibodies used for Western are rabbit polyclonal antibodies against Gli1, total Akt, phosphorylated Akt-Ser473 (Cell Signaling) and Cyclin D1 (Abeam).
(§2) Protein Expression. Cells were collected in lysis buffer (20 mM Tris, pH 7.5, 150 mM NaCl, 1 mM EDTA, 1 mM EGTA, 1% Nonidet NP-40, 1 mM β-glycerol phosphate, 1 mM Na3VO4, 1 μg/ml leupeptin, and 1 mM PMSF) and measured for protein concentration with a BCA protein assay kit (Pierce). Electrophoretic separation was performed utilizing 20-60 μg of protein on 4-12% mini-gels (Invitrogen). Proteins were transferred to a PVDF membrane, blocked in 5% blotto [5% powdered milk in TBST (Tris-buffered saline, 1% Tween 20)] for 1 hr followed by an overnight incubation at 4° C. with primary antibody. After overnight incubation, membranes were washed for 30 min in TBST and then probed with anti-rabbit antibody for 45 min at room temperature. After another 30 min of washing in TBST, the blots were developed with ECL. Once the appropriate image was captured, membranes were stained with Coomassie blue to verify equal loading in all lanes. Densitometric measurements were carried out using AlphaEase software (Alpha Innotech).

wild-type (WT) mice = test: Intramuscular injection into wild-type mouse skeletal muscle, BrdU/Pax7 staining; format: in vivo; conditions: 500 μM IM once per day for two days
Description: (§3) FIG. 3 is a graphic depiction of the design of in vivo experiments, further detailed herein. 6 to 8-week old wildtype (WT), DMD^MDX, or WT cardiotoxin-injured mice (Ctx-inj) received two consecutive bilateral IM injections of either vehicle (10% DMSO/PBS), or Shh-Ag (500 μM) into tibialis anterior (TA) or gastrocnemius (GA) muscles, followed by an IP injection of BrdU. Mice were sacrificed and muscles were then collected 3 or 7 days following ctx-injury for immunostaining (TA) or FACS analysis (GA); n=4 for all groups.
(§4) Mice. All mouse protocols were approved by the Animal Care and Use Committee of Novartis Institutes for BioMedical Research. Wild-type (C57BL/6J) and C57BL/10 DMD^MDX mice were obtained from Jackson Labs. All analyses were performed on male mice approximately 6-8 weeks of age.
(§5) Shh-Ag treatment. 20 μl (TA) or 50 μl (GA) of vehicle (10% DMSO/PBS) or 500 μM Shh-Ag was injected into the respective tibialis anterior or gastrocnemius muscles once per day for two consecutive days.
(§6) BrdU treatment. […] Three random images from four replicate experiments were analyzed for total cell (Dapi) and BrdU+ cell number. […]
(§7) Immunostaining. […] Images were obtained using an ScanScope XT scanner and analyzed using Aperio ImageScope 6.25 software (Aperio Technologies). […]

[2] = tested on: WT cardiotoxin-injured mice; test: Cardiotoxin-induced muscle injury and regeneration in WT mice, staining and FACS analysis; format: in vivo, mouse
Description: as §3, §4
Cardiotoxin-induced regeneration. Muscle regeneration was induced by injecting 40 μl (TA) or 100 μl (GA) of cardiotoxin (10 μM Naja atra; Sigma) into the respective tibialis anterior or gastrocnemius muscles of WT C57BL/6J mice.
as §5
BrdU treatment. For treatment of isolated SCs, a 1:100 dilution of 5-bromodeoxyuridine (BrdU) labeling reagent (10 mg/mL; Invitrogen) was added to the culture media 24 hours following vehicle or Shh-Ag treatment. Cells were then incubated an additional 5 hours, fixed, probed for BrdU, mounted with Dapi containing medium (Vector Labs), and then imaged as described in Materials in Methods. Three random images from four replicate experiments were analyzed for total cell (Dapi) and BrdU+ cell number. For in vivo delivery, 100 μl of BrdU was intraperitoneally (IP) injected following the second vehicle or Shh-Ag intramuscular injection.
FACS analysis. The following antibodies were used in this study: APC-conjugated anti-CD45 (BD), PE-conjugated anti-Syndecan 4 (BD), and FITC-conjugated anti-BrdU (BioVision). Muscles from treated mice were dissected and dissociated as described. To sort satellite cells for further experimentation, […] anti-syndecan 4 was utilized to positively select cells following ARIA (BD) mediated cell sorting. […]
as §7
To quantify the induction of SC proliferation, ctx-injured and Shh-Ag treated muscle samples (GA) were collected and processed for FACS analysis. A single-cell muscle suspension was gated based on CD45− and Syndecan4+ expression, commonly used identifiers of muscle SCs, and the resultant population was then analyzed for intracellular BrdU localization (see, e.g., FIG. 4). […]

Cyclin D1 [3] = test: Cyclin D1 mRNA expression in isolated SCs; format: cell-based
Description: (§8) RNA and qRT-PCR. For analysis of gene expression, cells were treated with vehicle (DMSO) or 10 nM Shh-Ag for 24 hours. Total RNA was isolated with RNEasy Miniprep Kit (Qiagen), DNAse treated (RQ1, Promega) and reverse transcribed (iScript, Biorad) according to manufacturers instructions. Quantitative PCR was performed using Taqman Gene Expression Assays (Applied Biosystems) in an ABI7500 Fast system as per manufacturer's instructions. Gene expression changes were calculated using the comparative ΔΔCT method.
(§9) Myoblast and Satellite cell isolation. Primary mouse myoblasts were isolated from mouse hind-limb muscles as described herein. Muscle satellite cells were isolated from hind-limb muscles of 4-6 week old C57BL/6J mice. Muscles were dissected and finely chopped with razor blades in DMEM. Chopped muscles were placed in a 50 mL Falcon tube with 30 mL of dissociation solution (0.1% Collagenase D, 0.25% Trypsin in DMEM) and agitated at 37° for 20 minutes. Following dissociation, 500 μl of fetal calf serum was added to block Trypsin activity and samples were passed through a 37 μM filter. Solutions were diluted two-fold in DMEM, passed through a […] filter, centrifuged at 1000 RPM for 15 minutes, and the subsequent pellet was re-suspended in 1% FCS/PBS. Syndecan 4 positive satellite cells were then isolated by fluorescent activated cell sorting (FACS) utilizing an ARIA-UV cell sorter (BD).

DMD^MDX mice = test: Intramuscular injection into DMD MDX mouse skeletal muscle, BrdU/Pax7 staining; format: in vivo; conditions: 500 μM IM once per day for two days
Description: as §3, §4, §5, §6, §7

Gli1 [4] = test: Gli1 mRNA levels in myotubes; format: cell-based; conditions: 10 μM, 24 hours
Cyclin D1 [5] = test: Cyclin D1 mRNA expression in myoblasts; format: cell-based
Description: as §8

Gli1 [6] = test: Gli1 protein levels, Western blot densitometry; format: cell-based; conditions: rSHH 1 μg/mL; densitometric scores relative to vehicle=100
Description: as §1, §2

isolated satellite cells = test: Isolated satellite cell proliferation, total cell number and BrdU incorporation; format: cell-based, mouse; conditions: 48 hr treatment, versus vehicle
Description: (§10) Cells. TM3 and C2C12 cells were obtained from ATCC, propagated according to manufacturer's instructions, and maintained at subconfluence. Both primary myoblasts and isolated satellite cells were grown in Ham's F10 media supplemented with 20% Fetal calf serum and 1% Penicillin/Streptomycin without βFGF. All cells were plated on pre-coated collagen dishes (MatTek) or on plastic culture plates treated with rat tail collagen type I (BD).
as §9, with “Syndecan 4 positive satellite cells were then isolated by fluorescent activated cell sorting (FACS) utilizing an ARIA-UV cell sorter (BD).” left out
as §6

primary myoblasts = test: Primary myoblast proliferation, PI staining and FACS analysis; format: cell-based, mouse
Description: as §10
Myoblast isolation. Two to three week-old male C57/BL/6J pups were used for the experiments. The mice were euthanized using CO2. Then the skin and fascia from the ankle joint up toward the hip were peeled to expose underlying muscles. The muscles (hamstring, quadriceps, tibialis anterior, extensor digitorum longus, gastrocnemius and soleus) from both legs were carefully removed, trying to any tendons and non-muscle tissues. The dissected muscles were placed in a sterile […] containing PBS and washed to remove hair and other debris. The muscles were then transferred to a sterile 35 mm^2 dish and 1.5 ml of a collagenase/dispase solution was added to digest the tissues. The tissues were mulched into a reasonably smooth pulp using sterile disposable followed by incubating at 37° C. for 12 min. They were then triturated using 5 ml plastic pipettes to homogenize the mixture. The incubation and triturating step was repeated once more. […]

| Compound | Cyclin D1 protein levels (Cyclin D1 [1]) | Pax7/BrdU fluorescent co-staining of muscle sections (wild-type (WT) mice) | BrdU staining of muscle sections (wild-type (WT) mice; vehicle sections negative) | BrdU+, centrally-aligned nuclei in longitudinal muscle sections ([2]; 7 days following ctx-injury) | percent of proliferating (BrdU+) SCs ([2]; ctx-injured GA muscle, FACS, vehicle 4.82±0.33) | percentage of Pax7 expressing SCs that are Pax7+/BrdU+ double positive ([2]; ctx-injured WT muscle, compared to vehicle control) | number of BrdU+ cells at an early stage of regeneration ([2]; single cardiotoxin injury, WT mice, 500 μM IM) | increase in Cyclin D1 mRNA expression (Cyclin D1 [3]) | mononuclear cell infiltration (BrdU+ staining) (DMD^MDX mice) | number of Pax7−/BrdU+ cells (DMD^MDX mice) | Gli1 mRNA levels, fold increase (Gli1 [4]) | increase in Cyclin D1 mRNA expression (Cyclin D1 [5]) | Gli1 protein levels (Gli1 [6]) | increase in the percentage of SCs incorporating BrdU (isolated satellite cells) | myoblast proliferation on co-treatment of Shh-Ag with IGF-1 (primary myoblasts) |
| --- | --- | --- | --- | --- | --- | --- | --- | --- | --- | --- | --- | --- | --- | --- | --- |
| CNC1CCC(N(Cc2cccc(-c3ccncc3)c2)C(=O)c2sc3c(F)ccc(F)c3c2Cl)CC1 (stereo not drawn) [Shh-Ag] | elevated protein expression; also recorded: increase | Pax7+/BrdU+ double positive cells were easily seen | displayed BrdU+ precursor cells | increase in BrdU+, centrally-aligned nuclei | 10.67±1.87% and 10.6% | larger percentage | significantly increase | more than 50% | seemed to promote even greater mononuclear cell infiltration | greatly increased | over 20 fold | more than 50% | induction; also recorded: increase | two fold increase | – |
| IGF-1: Insulin-like growth factor I, a known skeletal muscle mitogen signaling through PI3K/Akt | – | – | – | – | – | – | – | – | – | – | – | – | – | – | did not significantly increase |
